In brackets after ≈: the same amount, converted by molar mass.
Key:
[1] = system: Klebsiella pneumoniae (Kp); test: Minimum inhibitory concentration (MIC), bacteria in nutrient agar; format: cell-based, Klebsiella pneumoniae ATCC 8308; details: 48 hours
Experimental: (§1) The minimum inhibitory concentration (MIC) for the compounds listed in Table I is determined for 9 bacteria, using nutrient agar, and 7 yeast and fungi, using malt yeast agar. A one percent solution of the test compound is prepared in a mixture of acetone and water.
(§2) Nutrient agar is prepared at pH 6.8, representing a neutral medium, and at pH 8.2, representing an alkaline medium. The nutrient agars are prepared by adding 23 g of nutrient agar to one liter of deionized water. In addition, the alkaline medium is prepared by adjusting a 0.04M solution of N-[tris-(hydroxymethyl)methyl]glycine buffered deionized water with concentrated sodium hydroxide to a pH of 8.5.
(§3) The test tubes containing the agar are cooled in a water bath until the temperature of the agar is 48° C. Then, an appropriate amount of the one percent solution of the test compound is added (except in the controls where no compound is added) to the respective test tubes so that the final concentrations are 500, 250, 100, 50, 25, 10, 5, 2.5, 1.0 and zero parts per million of the test compound in the agar, thus having a known concentration of test compound dispersed therein. The contents of the test tubes are then transferred to respective petri plates. After drying for 24 hours, the petri plates containing nutrient agar are inoculated with bacteria and those containing malt yeast agar are inoculated with yeast and fungi.
(§4) The inoculation with bacteria is accomplished by using the following procedure. Twenty-four hour-cultures of each of the bacteria are prepared by incubating the respective bacteria in tubes containing nutrient broth for 24 hours at 30° C. in a shaker. Dilutions of each of the 24 hour-cultures are made so that nine separate suspensions (one for each of the nine test bacteria) are made, each containing 10^8 colony forming units (CFU) per mL of suspension of a particular bacteria. Aliquots of 0.3 mL of each of the bacterial suspensions are used to fill the individual wells of Steer's Replicator. For each microbial suspension, 0.3 mL was used to fill three wells (i.e., three wells of 0.3 mL each) so that for the nine different bacteria, 27 wells are filled. The Steer's Replicator is then used to inoculate both the neutral and alkaline pH nutrient agar petri plates.
(§5) The inoculated petri plates are incubated at 30° C. for 48 hours and then read to determine if the test compound which is incorporated into the agar prevented growth of the respective bacteria.
(§6) Table II lists the bacteria, yeast and fungi used in the MIC test described above along with their respective American Type Culture Collection (ATCC) identification numbers.
(§7) In Tables III and IV, the MIC values of the compounds described in Table I as compared to the MIC of a standard commercial preservative (with 1-(3-chloroallyl)-3,5,7-triaza-1-azoniaadamantane chloride as the active agent and referred to in Tables III and IV as "STANDARD I") are set forth for the bacteria organisms and yeast/fungi organisms which are listed in Table II.

[2] = system: Penicillium chrysogenum (Pc); test: Minimum inhibitory concentration (MIC), yeast/fungi in malt yeast agar; format: cell-based, Penicillium chrysogenum ATCC 9480; details: 30° C., 72 hours for fungi
Experimental: as §1
(§8) Malt yeast agar is prepared by adding 3 g yeast extract and 45 g malt agar per liter of deionized water. The specific agar is dispensed in 30 mL aliquots into 25×200 mm test tubes, capped and autoclaved for 15 minutes at 115° C.
as §3
(§9) The inoculation with the yeast and fungi is accomplished as follows. Cultures of yeast and fungi are incubated for seven days on malt yeast agar at 30° C. These cultures are used to prepare suspensions by the following procedure. A suspension of each organism is prepared by adding 10 mL of sterile saline and 10 microliters of octylphenoxy polyethoxy ethanol to the agar slant of yeast or fungi. The sterile saline/octylphenoxy polyethoxy ethanol solution is then agitated with a sterile swab to suspend the microorganism grown on the slant. Each resulting suspension is diluted into sterile saline (1 part suspension to 9 parts sterile saline). Aliquots of these dilutions are placed in individual wells of Steer's Replicator and petri plates inoculated as previously described. The petri plates are incubated at 30° C. and read after 48 hours for yeast and 72 hours for fungi.
as §6, §7

Escherichia coli (Ec) = test: Minimum inhibitory concentration (MIC), bacteria in nutrient agar; format: cell-based, Escherichia coli ATCC 11229; details: 48 hours
Experimental: as §1, §2, §3, §4, §5, §6, §7

[3] = system: Enterobacter aerogenes (Ea); test: as above; format: cell-based, Enterobacter aerogenes ATCC 13048; details: Klebsiella aerogenes, 48 hours
Experimental: as §1, §2, §3, §4, §5, §6, §7

Proteus vulgaris (Pv) = test: as above; format: cell-based, Proteus vulgaris ATCC 881; details: 48 hours
Experimental: as §1, §2, §3, §4, §5, §6, §7

[4] = system: Saccharomyces cerevisiae (Sc); test: Minimum inhibitory concentration (MIC), yeast/fungi in malt yeast agar; format: cell-based, Saccharomyces cerevisiae ATCC 4105; details: 30° C., 48 hours for yeast
Experimental: as §1, §8, §3, §9, §6, §7

Fusarium oxysporum (Fo) = test: as above; format: cell-based, Fusarium oxysporum ATCC 48112; details: 30° C., 72 hours for fungi
Experimental: as §1, §8, §3, §9, §6, §7

Bacillus subtilis (Bs) = test: Minimum inhibitory concentration (MIC), bacteria in nutrient agar; format: cell-based, Bacillus subtilis ATCC 8473; details: 48 hours
Experimental: as §1, §2, §3, §4, §5, §6, §7

[5] = system: Salmonella choleraesuis (Sc); test: as above; format: cell-based, Salmonella choleraesuis ATCC 10708; details: Salmonella enterica, 48 hours
Experimental: as §1, §2, §3, §4, §5, §6, §7

Trichoderma viride (Tv) = test: Minimum inhibitory concentration (MIC), yeast/fungi in malt yeast agar; format: cell-based, Trichoderma viride ATCC 8678; details: 30° C., 72 hours for fungi
Experimental: as §1, §8, §3, §9, §6, §7

[6] = system: Staphylococcus aureus (Sa); test: Minimum inhibitory concentration (MIC), bacteria in nutrient agar; format: cell-based, Staphylococcus aureus ATCC 6538; details: 48 hours
Experimental: as §1, §2, §3, §4, §5, §6, §7

Candida albicans (Ca) = test: Minimum inhibitory concentration (MIC), yeast/fungi in malt yeast agar; format: cell-based, Candida albicans ATCC 10231; details: 30° C., 48 hours for yeast
Experimental: as §1, §8, §3, §9, §6, §7

Aspergillus niger (An) = test: as above; format: cell-based, Aspergillus niger ATCC 16404; details: 30° C., 72 hours for fungi
Experimental: as §1, §8, §3, §9, §6, §7

[7] = system: Pseudomonas aeruginosa (PRD-10); test: Minimum inhibitory concentration (MIC), bacteria in nutrient agar; format: cell-based, Pseudomonas aeruginosa ATCC 15442; details: 48 hours
Experimental: as §1, §2, §3, §4, §5, §6, §7

[8] = system: Aureobasidium pullulan (Ap); test: Minimum inhibitory concentration (MIC), yeast/fungi in malt yeast agar; format: cell-based, Aureobasidium pullulan ATCC 16622; details: 30° C., read after 48 hours for yeast and 72 hours for fungi
Experimental: as §1, §8, §3, §9, §6, §7

[9] = system: Pseudomonas aeruginosa (Pa); test: Minimum inhibitory concentration (MIC), bacteria in nutrient agar; format: cell-based, Pseudomonas aeruginosa ATCC 10145; details: 48 hours
Experimental: as §1, §2, §3, §4, §5, §6, §7

SMILES | MIC ([1]; nutrient agar pH 6.8, 30° C.) [µg/mL] | MIC ([1]; nutrient agar pH 8.2, 30° C.) [µg/mL] | MIC [2] [µg/mL] | MIC (Escherichia coli (Ec); nutrient agar pH 6.8, 30° C.) [µg/mL] | MIC (Escherichia coli (Ec); nutrient agar pH 8.2, 30° C.) [µg/mL] | MIC ([3]; nutrient agar pH 6.8, 30° C.) [µg/mL] | MIC ([3]; nutrient agar pH 8.2, 30° C.) [µg/mL] | MIC (Proteus vulgaris (Pv); nutrient agar pH 6.8, 30° C.) [µg/mL] | MIC (Proteus vulgaris (Pv); nutrient agar pH 8.2, 30° C.) [µg/mL] | MIC [4] [µg/mL] | MIC (Fusarium oxysporum (Fo)) [µg/mL] | MIC (Bacillus subtilis (Bs); nutrient agar pH 6.8, 30° C.) [µg/mL] | MIC (Bacillus subtilis (Bs); nutrient agar pH 8.2, 30° C.) [µg/mL] | MIC ([5]; nutrient agar pH 6.8, 30° C.) [µg/mL] | MIC ([5]; nutrient agar pH 8.2, 30° C.) [µg/mL] | MIC (Trichoderma viride (Tv)) [µg/mL] | MIC ([6]; nutrient agar pH 6.8, 30° C.) [µg/mL] | MIC ([6]; nutrient agar pH 8.2, 30° C.) [µg/mL] | MIC (Candida albicans (Ca)) [µg/mL] | MIC (Aspergillus niger (An)) [µg/mL] | further results
Cc1ccc(-n2nnnc2SCSC#N)cc1 [VII, 1-(4-Methylphenyl)-5-thiomethylthiocyanato-1H-tetrazole] | 250 (≈ 949 µM) | 100 (≈ 380 µM) | < 1 | 500 (≈ 1900 µM) | 500 (≈ 1900 µM) | > 500 | > 500 | 100 (≈ 380 µM) | 250 (≈ 949 µM) | < 1 | 5 (≈ 19 µM) | < 10 | < 10 | > 500 | > 500 | 10 (≈ 38 µM) | 25 (≈ 94.9 µM) | 50 (≈ 190 µM) | 10 (≈ 38 µM) | 2.5 (≈ 9.49 µM) | MIC ([7]; nutrient agar pH 6.8, 30° C.): 500 µg/mL (≈ 1900 µM); MIC ([7]; nutrient agar pH 8.2, 30° C.): 250 µg/mL (≈ 949 µM); MIC [8]: < 1 µg/mL
COc1ccc(-n2nnnc2SCSC#N)cc1 [VIII, 1-(4-Methoxyphenyl)-5-thiomethylthiocyanato-1 H-tetrazole] | 250 (≈ 895 µM) | 100 (≈ 358 µM) | < 10 | 100 (≈ 358 µM) | 500 (≈ 1790 µM) | 250 (≈ 895 µM) | 500 (≈ 1790 µM) | 250 (≈ 895 µM) | 500 (≈ 1790 µM) | < 10 | < 10 | < 10 | 25 (≈ 89.5 µM) | 250 (≈ 895 µM) | 500 (≈ 1790 µM) | 25 (≈ 89.5 µM) | 25 (≈ 89.5 µM) | 100 (≈ 358 µM) | 25 (≈ 89.5 µM) | < 10 | MIC ([9]; nutrient agar pH 8.2, 30° C.): 100 µg/mL (≈ 358 µM); MIC ([7]; nutrient agar pH 6.8, 30° C.): 100 µg/mL (≈ 358 µM); MIC ([7]; nutrient agar pH 8.2, 30° C.): 500 µg/mL (≈ 1790 µM); MIC [8]: < 10 µg/mL
N#CSCSc1nnnn1-c1ccc([N+](=O)[O-])cc1 [XI, 1-(4-Nitrophenyl)-5-thiomethylthiocyanato-1H-tetrazole] | < 100 | > 100 | < 2.5 | > 100 | > 100 | > 100 | > 100 | < 100 | > 100 | 10 (≈ 34 µM) | 25 (≈ 84.9 µM) | > 100 | > 100 | > 100 | > 100 | 25 (≈ 84.9 µM) | 100 (≈ 340 µM) | 50 (≈ 170 µM) | 100 (≈ 340 µM) | 5 (≈ 17 µM) | MIC ([9]; nutrient agar pH 6.8, 30° C.): > 100 µg/mL; MIC ([9]; nutrient agar pH 8.2, 30° C.): > 100 µg/mL; MIC ([7]; nutrient agar pH 6.8, 30° C.): > 100 µg/mL; MIC ([7]; nutrient agar pH 8.2, 30° C.): > 100 µg/mL; MIC [8]: 10 µg/mL (≈ 34 µM)
N#CSCSc1nnnn1-c1ccc(C#N)cc1 [XII, 1-(4-Cyanophenyl)-5-thiomethylthiocyanato-1H-tetrazole] | 100 (≈ 365 µM) | 100 (≈ 365 µM) | < 10 | 200 (≈ 729 µM) | 400 (≈ 1460 µM) | 500 (≈ 1820 µM) | > 400 | 100 (≈ 365 µM) | 200 (≈ 729 µM) | 40 (≈ 146 µM) | 20 (≈ 72.9 µM) | < 10 | 40 (≈ 146 µM) | 500 (≈ 1820 µM) | 400 (≈ 1460 µM) | 40 (≈ 146 µM) | 20 (≈ 72.9 µM) | 100 (≈ 365 µM) | 200 (≈ 729 µM) | < 10 | MIC ([9]; nutrient agar pH 8.2, 30° C.): 200 µg/mL (≈ 729 µM); MIC ([7]; nutrient agar pH 6.8, 30° C.): 500 µg/mL (≈ 1820 µM); MIC ([7]; nutrient agar pH 8.2, 30° C.): 400 µg/mL (≈ 1460 µM); MIC [8]: < 10 µg/mL
